From patent US20090137652A1, “METHODS FOR NEUROPROTECTION” (priority 2005, published 2009)
Where a name gives a salt, the structure may show the parent alone.

Experiments:
PC12 cells = test: PC12 cell serum withdrawal model, MTS cell survival assay; type: cell-based
Text: Serum withdrawal is a cytotoxic environmental challenge that results in cell death in cultured cell lines as well as in primary cells of various tissue origins, including nerve cells. In particular, pheochromocytoma (PC) 12 cells have been widely employed as an in vitro neuronal cell model for a wide variety of neurodegenerative and cell death related disorders (Muriel, et al, Mitochondrial free calcium levels (Rhod-2 fluorescence) and ultrastructural alterations in neuronally differentiated PC12 cells during ceramide-dependent cell death, J. Comp. Neurol., 2000, 426(2), 297-315; Dermitzaki, et al, Opioids transiently prevent activation of apoptotic mechanisms following short periods of serum withdrawal, J. Neurochem., 2000, 74(3), 960-969; Carlile, et al, Reduced apoptosis after nerve growth factor and serum withdrawal: conversion of tetrameric glyceraldehyde-3-phosphate dehydrogenase to a dimer, Mol. Pharmacol., 2000, 57(1), 2-12). PC12 cells were cultured in sterile media (RPMI 1640) supplemented with 10% heat-inactivated horse serum and 5% fetal bovine serum (FBS). The culture medium also contained Penicillin-Streptomycin-Neomycin antibiotic (50 µg, 50 µg, 100 µg, respectively). Medium was exchanged every other day and the cells were passed in log phase near confluence.
The control cells were cultured in regular media without any treatment. An enantiomer of Formula 7 or Formula 8 (10 µM) was mixed well in the medium and then applied to the cells. For the 2 day assay, an enantiomer of Formula 7 or Formula 8 (10 µM) was only applied to the cells once at the time of serum withdrawal. For the 7 day assay, an enantiomer of Formula 7 or Formula 8 (10. mu.M) was applied to the cells at the time of serum withdrawal and every 48 hr thereafter when cells were changed with fresh new serum-free medium. In the serum withdrawal group, the cells were cultured in serum-free medium with no additional enantiomer of Formula 7 or Formula 8. Cell survival was determined by the 3-(4,5-dimethylthiazol-2-yl)-5-(3-[…])-2-(4-sulfophenyl)-2H-tetrazolium inner salt (MTS) assay at 2 or 7 days after serum withdrawal.
At the end of the experiment, cells were washed with fresh medium and incubated with MTS solution in a humidified 37° C. with 5% CO2 incubator for 1.5 hr. After the incubation period, the cells were immediately analyzed using a Softmax program (Molecular Devices). […] The assay is based on the cellular conversion of the tetrazolium salt, MTS, into a formazan that is soluble in tissue culture medium and measured directly at 490 nm in 96-well assay plates. The absorbance is directly proportional to the number of living cells in culture. The arbitrary absorbance reading in control cells is expressed as 100% survival rate.

[1] = system: transient cerebral ischemia middle cerebral artery occlusion (MCAO) rat model; test: Transient cerebral ischemia middle cerebral artery occlusion (MCAO) rat model, infarct volume; type: in vivo; conditions: MK 801 3 mg/kg i.p., N 12
Description: The enantiomer of Formula 7 (test compound) was investigated in the transient cerebral ischemia middle cerebral artery occlusion (MCAO) rat model (as described in Nagasawa H. and Kogure K., Stroke, 1989, 20, 1037; and, Zea Longa E., Weinstein P. R., Carlson S, and Cummins R., Stroke, 1989, 20, 84) using male Wistar rats at 10 and 100 mg/kg (i.v.). MK 801 (Dizocilpine maleate; CAS Registry number 77086-22-7, a commercially available neuroprotectant compound) was used as a positive control (3 mg/kg, i.p.).
Rats (n=12) were randomly allocated to one of four experimental groups and were anesthetized. Blood flow from the internal carotid artery, anterior cerebral artery and posterior cerebral artery into the middle cerebral artery was blocked by this procedure. One hour after blockage, animals were treated over a 1 hour period with vehicle (administered i.v. over the one hour period), control (administered as a single i.p. dose at the start of the one hour period) and two doses of the enantiomer of Formula 7 (administered i.v. over the one hour period). Two hours after blockage, reperfusion was performed.
The animals were sacrificed and […] coronal sections of each brain were prepared. One in every forty sections (i.e. every […]) from the front to the occipital cortex was used to quantify the extent of the cerebral lesion. Slides were prepared using sections stained (according to the Nissl procedure) with cresyl violet and were examined under a light microscope.
Regional ischemic surface areas in the coronal sections of individual rats were determined according to the presence of cells with morphological changes. The areas of neuronal injury or infarction were measured and then added. The cortex and striatum volume were calculated for each animal (total ischemic surface area×0.8 mm (thickness)).
The mean volumes (.+−.S.E.M.) for each animal randomly assigned to the four experimental groups were compared using one-way ANOVA (one way ANOVA is a statistical method which compares 3 or more unmatched groups) followed by Dunnett's t-test (both methods incorporated in Statview 512+software, BarinPower, Calabasas, Calif., USA).

Structure (SMILES) | 2 Day Survival Rate (PC12 cells; 10 µM applied once at serum withdrawal, MTS assay 2 days after serum withdrawal, control 100, serum-free 49.6) | 7 Day Survival Rate (PC12 cells; 10 µM at serum withdrawal and every 48 hr, MTS assay 7 days after serum withdrawal, control 100, serum-free 23.8) | Mean Infarct Volume ± S.E.M., Striatum ([1]; vehicle 79.4) | Mean Infarct Volume ± S.E.M., Cortex ([1]; vehicle 275.5) | Mean Infarct Volume ± S.E.M., Total Volume ([1]; vehicle 354.9)
NC(=O)OC[C@H](OC(N)=O)c1ccccc1Cl [Formula 8] | 66.4 ± 5.4^1% | 85.2 ± 0.6^2% |  |  | 
C[C@]12N[C@H](Cc3ccccc31)c1ccccc12 [MK 801, Dizocilpine maleate, reference compound] |  |  | 56.1 ± 5.3^2 mm^3 | 95.8 ± 24.5^1 mm^3 | 151.9 ± 28.7^1 mm^3
